Assay results taken from article PMC10610545, “Preclinical Evaluation of an Imidazole-Linked Heterocycle for Alzheimer’s Disease” (Pharmaceutics, 2023).

Assays:
[1] = tested on: HT-22 mouse hippocampal neuronal cell line; test: Cytotoxicity of compounds alone, MTT assay, HT-22; type: cell-based; conditions: HT-22, 24 h, escalating concentrations
Description: (§1) In the study of neurotoxicity associated with AD, the HT22 mouse hippocampal neuronal cell line has been recognized as an effective cell model. HT22 cells were purchased from Merck-Sigma-Aldrich (SCC12, Madrid, Spain) and cultured in DMEM-F12 (Gibco, Fisher Scientific, Madrid, Spain) supplemented with foetal bovine serum (FBS, 10%) and 1% penicillin/streptomycin under standard conditions (37 °C, 5% CO2). The human dopaminergic cell line SH-SY5Y, in turn, has been widely used as an in vitro model to study the pathogenesis of PD associated with dopaminergic degeneration. Cells, acquired from the American Type Culture Collection (ATCC, Rockville, MD, USA, Ref.CRL-2266), were grown in RPMI medium (Gibco) supplemented with glutamine (2 mM), 10% FBS, and 1% penicillin/streptomycin under standard conditions. Semiconfluent cells (90%) were seeded on 96-well plates at 3 × 10^4 per well and incubated for 24 h before treatment.
(§2) Neuronal cultures, HT-22 and SH-SY5Y, seeded on 96-well plates were treated with LSL33, LSL34, and LSL60101 for 24 h, and viability was assessed using the MTT assay. […] Then, cultures were treated for 1h with LSL33 at 2 μM and LSL34 and LSL60101 at 1 μM. This dose was chosen based on previous studies. Subsequently, HT-22 cultures were exposed to glutamate (10 mM, Merck-Sigma), while SH-SY5Y cultures received 6-hydroxydopamine (6-OHDA, 35 μM, Merck-Sigma). The cells were then incubated for a minimum of 16 h. Finally, the cellular viability and nitrite production of the cultures were assessed.
The assessment of cell viability was conducted using the 3-(4,5-dimethylthiazol-2-yl)-5-(3-carboxymethoxyphenyl)-2-(4-sulfophenyl)-2H-tetrazolium (MTT) assay, following the instructions provided by the manufacturer (Roche Diagnostic, Darmstadt, Germany). […] The absorbance of the solution was measured at 595–650 nm using a spectrophotometer. The experiments were performed at least three times, and the results were expressed as a percentage of the control. […]

[2] = target: imidazoline I2 receptors (I2-IR); test: Competition binding against [3H]2-BFI, membranes from post-mortem human frontal cortex; conditions: for Ki: corresponds to pKiH, read-out: Ki of the high-affinity I2 site; for [3H]-2-BFI I2 pKi (One Site): monophasic fit; for [3H]-2-BFI I2 pKi (Two Sites), high affinity (pKiH) / [3H]-2-BFI I2 pKi (Two Sites), low affinity (pKiL): two-site model; for [3H]-2-BFI I2 pKi (Two Sites), high affinity (pKiH): high-affinity site; for [3H]-2-BFI I2 pKi (Two Sites), low affinity (pKiL): low-affinity site
Excerpt: The inhibition constant (Ki) for each compound was obtained and is expressed as the corresponding pKi. The selectivity for these two receptors was expressed by the I2/α2 index, calculated as the antilogarithm of the […] between pKi values for I2-IR and pKi values for α2-AR.
Preparation of cellular membranes.
Human brain samples were obtained at autopsy in the Basque Institute of Legal Medicine, Bilbao, Spain. Samples from the prefrontal cortex (Brodmann’s area 9) were dissected at the time of autopsy and immediately stored at -70 °C until assay. The study was developed in compliance with policies of research and ethical review boards for postmortem brain studies.
To obtain cellular membranes (P2 fraction) the different samples were homogenized using an ultraturrax in 10 volumes of homogenization buffer (0.25 M sucrose, 5 mM Tris–HCl, pH 7.4).
The crude homogenate was centrifuged for 5 min at 1000 g (4 °C) and the supernatant was centrifuged again for 10 min at 40,000 g (4 °C). The resultant pellet was washed twice in 5 volumes of homogenization buffer and recentrifuged in similar conditions. Protein content was measured according to the method of Bradford using BSA as standard.
Competition Binding Assays.
The pharmacological activity of the compounds was evaluated through competition binding studies against the I2-IR selective radioligand [3H]2-BFI or the α2-adrenergic receptor selective radioligand [3H]RX821002. Specific binding was measured in 0.25 mL aliquots (50 mM Tris-HCl, pH 7.5) containing 100 µg of membranes, which were incubated in 96-well plates either with […]
Incubations were terminated by separating free ligand from bound ligand by rapid filtration […]
counted for radioactivity by liquid scintillation spectrometry using a MicroBeta TriLux counter (PerkinElmer). Specific binding was determined and plotted as a function of the compound concentration. Nonspecific binding was determined in the presence of idazoxan (10–5 M), a compound with well stablished affinity for I2-IR and α2-adrenergic receptors, in [3H]2-BFI and [3H]RX821002 assays. To obtain the inhibition constant (Ki) analyses of competition experiments were performed by nonlinear regression using the GraphPad Prism program. Ki values were normalized to pKi values. I2-IR/α2 selectivity index was calculated as the antilogarithm of the difference between pKi values for I2-IR and pKi values for α2-ARs.

[3] = tested on: SH-SY5Y dopaminergic neurons; test: 6-OHDA-induced damage in SH-SY5Y cells (MTT viability, Griess nitrite); type: cell-based, human; conditions: 35 μM 6-OHDA; for neuroprotection (cell viability, MTT): 1 h pretreatment, LSL33 2 μM, LSL34 and LSL60101 1 μM; for nitrite production: culture supernatant
Description: as §1, §2
The assessment of cell viability was conducted using the 3-(4,5-dimethylthiazol-2-yl)-5-(3-carboxymethoxyphenyl)-2-(4-sulfophenyl)-2H-tetrazolium (MTT) assay, following the instructions provided by the manufacturer (Roche Diagnostic, Darmstadt, Germany). Briefly, after exposure to glutamate or 6-OHDA, the cell culture medium was replaced with 100 μL of fresh culture medium containing MTT solution (0.5 mg/mL) and incubated for 1 h. The medium was then removed, and the resulting formazan crystals were dissolved in dimethylsulfoxide (DMSO, Merck-Sigma). The absorbance of the solution was measured at 595–650 nm using a spectrophotometer. The experiments were performed at least three times, and the results were expressed as a percentage of the control.
Following the designated treatments, 100 μL of the cell culture supernatant was mixed with an equal volume of Griess reagent (consisting of 1% sulfanylamide and 0.1% naphthyl ethylene diamine in 5% phosphoric acid, sourced from Sigma-Aldrich, Madrid, Spain) at room temperature for 15 min. To determine the nitrite concentrations, a standard solution of sodium nitrite was employed. The absorbance of the mixture was measured at 492/540 nm using a microplate reader from Thermofisher (Madrid, Spain). The experiments were repeated a minimum of three times.
Figure 4 In vitro screening of I2-IR ligands: Assessment of neuroprotective and anti-inflammatory effects HT-22 cells exposed to 10mM glutamate for at least 16 h Similarly, SH-SY5Y was damaged with 35 μM 6-OHDA (35 μM). Some cultures were pretreated with the I2-IR ligands. Cell viability was evaluated using the MTT assay, and nitrite production in the cell supernatant was quantified using the Griess reaction. The reported values represent the mean ± SD obtained from triplicate determinations repeated at least three times. Statistical analysis was performed: * p ≤ 0.05, ** p ≤ 0.01, *** p ≤ 0.001 (versus glutamate- or 6-OHDA-treated cultures); ^# p ≤ 0.05, ^### p ≤ 0.001 (versus idazoxan-treated cultures); ^& p ≤ 0.1, ^&&& p ≤ 0.001 (versus 2-BFI-treated cultures).

[3H]-2-BFI I2 pKi (One Site) [2]	[3H]-2-BFI I2 pKi (Two Sites), high affinity (pKiH) [2]	Selectivity I2/α2 ([2]; antilog (pKi I2-IR − pKi α2-AR))	Compound	cytotoxicity (MTT viability) [1]	Ki [2]	[3H]-2-BFI I2 pKi (Two Sites), low affinity (pKiL) [2]	neuroprotection (cell viability, MTT) [3]	nitrite production [3]
5.58 ± 0.31	9.23 ± 0.36	–	Cl.c1ccc2oc(-n3ccnc3)cc2c1 [LSL34, 1-(Benzofuran-2-yl)-1H-imidazole hydrochloride]	None of the compounds tested were cytotoxic	–	–	potent neuroprotective effects	significant attenuation of the increased nitrite production
6.67 ± 0.09	8.17 ± 0.19	3090	c1ccc2oc(-c3ncc[nH]3)cc2c1 [LSL60101, reference compound]	None of the compounds tested were cytotoxic	6.7 nM	6.02 ± 0.10	potent neuroprotective effects	significant attenuation of the increased nitrite production

Compound	[3H]-2-BFI I2 pKi (One Site) [2]	[3H]-2-BFI I2 pKi (Two Sites), high affinity (pKiH) [2]	Selectivity I2/α2 ([2]; antilog (pKi I2-IR − pKi α2-AR))	cytotoxicity (MTT viability) [1]	Ki [2]	[3H]-2-BFI I2 pKi (Two Sites), low affinity (pKiL) [2]	neuroprotection (cell viability, MTT) [3]	nitrite production [3]
Cl.c1ccc2sc(-c3ncc[nH]3)cc2c1 [LSL33, 2-(Benzo[b]thiophene-2-yl)-1H-imidazole hydrochloride]	5.95 ± 0.24	10.1 ± 0.57	–	None of the compounds tested were cytotoxic	0.079 nM	5.68 ± 0.25	potent neuroprotective effects	significant attenuation of the increased nitrite production
